Assay [1] addresses T1, human GHS receptor (Homo sapiens, UniProt Q92847). The experiment in a line: Ghrelin IP1 agonist assay (IP1 HTRF). It is filed as cell-based. Further details: expressed in transfected cells; host or cells: HEK293s. The note with it: for Emax: 2 h, agonist effect as % maximal effect of GHRP-6 (5 μM), read-out: h IP1 ag %; for EC50: HEK293s cells stably expressing human GHS receptor, 2 hours at 37° C., read-out: h IP1 ag EC50. The method, boiled down:
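Cells: HEK293s stably expressing human GHS receptor, in stimulation buffer containing 0.02% fatty acid free BSA.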
(In general: Time-resolved FRET reads energy transfer from a long-lived donor to a nearby acceptor.)

Assay [2] addresses T1, human GHS receptor. The experiment in a line: h bind IC50 (binding assay, Table 1). To be noted: human receptor; Table 1.

Eleven molecules from patent US20120115845A1, “THERAPEUTIC AGENTS” (priority 2007, published 2012) can be followed below.

In general, EC50 refers to the concentration that produces a half-maximal response. What is called IC50 is the concentration that inhibits the measured activity by half. Low values mean higher potency, high ones lower potency.

T1 sequence (Q92847 whole entry): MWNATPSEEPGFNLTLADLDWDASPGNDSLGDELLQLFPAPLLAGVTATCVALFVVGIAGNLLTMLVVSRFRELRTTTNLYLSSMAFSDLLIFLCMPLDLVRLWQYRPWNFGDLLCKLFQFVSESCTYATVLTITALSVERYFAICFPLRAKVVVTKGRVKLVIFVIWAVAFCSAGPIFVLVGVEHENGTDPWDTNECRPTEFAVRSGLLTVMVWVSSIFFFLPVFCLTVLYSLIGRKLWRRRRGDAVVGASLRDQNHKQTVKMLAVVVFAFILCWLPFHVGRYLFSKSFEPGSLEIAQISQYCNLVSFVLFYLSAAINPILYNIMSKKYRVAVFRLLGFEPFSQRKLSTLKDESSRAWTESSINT

In the case of `CC(C)(C)OC(=O)NC1CC(S(=O)(=O)c2ccc3nc(NC(=O)NC(=O)c4ccccc4Cl)sc3c2)C1` (stereo not drawn) [Example 213, tert-Butyl N-[3-[2-[(2-chlorobenzoyl)carbamoylamino]benzothiazol-6-yl]sulfonylcyclobutyl]carbamate], in assay [1], the Emax turned out to be 12.9% and the 50% effective concentration (EC50) came out at 12.5 nM. Also, the IC50 in assay [2] amounted to 238 nM.

As to `NC1CC(S(=O)(=O)c2ccc3nc(NC(=O)NC(=O)c4ccccc4Cl)sc3c2)C1` (stereo not drawn) [Example 214, N-[[6-(3-Aminocyclobutyl)sulfonylbenzothiazol-2-yl]carbamoyl]-2-chloro-benzamide], in assay [1], the Emax turned out to be 52.1% and the concentration giving a half-maximal response (EC50) was found to be 12.4 nM. In assay [2], this molecule displayed a 50% inhibitory concentration (IC50) of 32.6 nM.

With `CNC1CC(S(=O)(=O)c2ccc3nc(NC(=O)NC(=O)c4ccccc4Cl)sc3c2)C1` (stereo not drawn) [Example 215, 2-Chloro-N-[[6-(3-methylaminocyclobutyl)sulfonylbenzothiazol-2-yl]carbamoyl]benzamide], in assay [1], the Emax came out at 50.2% and the EC50 stood at 23 nM. The same molecule gave a concentration for half-maximal inhibition (IC50) in assay [2] of 27.2 nM.

Consider `CN(C)C1CC(S(=O)(=O)c2ccc3nc(NC(=O)NC(=O)c4ccccc4Cl)sc3c2)C1` (stereo not drawn) [Example 216, 2-Chloro-N-[[6-(3-dimethylaminocyclobutyl)sulfonylbenzothiazol-2-yl]carbamoyl]benzamide], for which, in assay [1], the Emax was 64.6% and the EC50 was found to be 54 nM. In addition, in assay [2], the IC50 amounted to 36.8 nM.

Regarding `CC(C)(C)OC(=O)N1CCC(CS(=O)(=O)c2ccc3nc(NC(=O)NC(=O)c4ccccc4Cl)sc3c2)CC1` [Example 217, tert-Butyl 4-[[2-[(2-chlorobenzoyl)carbamoylamino]benzothiazol-6-yl]sulfonylmethyl]piperidine-1-carboxylate], in assay [1], the Emax worked out at 36.9% and the half-maximal effective concentration (EC50) is 118 nM. In assay [2], this molecule returned an IC50 of 70.4 nM.

For the molecule `CC(C)(C)OC(=O)N1CCC(CCS(=O)(=O)c2ccc3nc(NC(=O)NC(=O)c4ccccc4Cl)sc3c2)CC1` [Example 218, tert-Butyl 4-[2-[2-[(2-chlorobenzoyl)carbamoylamino]benzothiazol-6-yl]sulfonylethyl]piperidine-1-carboxylate], in assay [1], the Emax was 39.2% and the half-maximal effective concentration (EC50) was 18.5 nM. The molecule further came in with a half-inhibitory concentration (IC50) in assay [2] of 22.3 nM.

With `O=C(NC(=O)c1ccccc1Cl)Nc1nc2ccc(S(=O)(=O)CC3CCNCC3)cc2s1` [Example 219, 2-Chloro-N-[[6-(4-piperidylmethylsulfonyl)benzothiazol-2-yl]carbamoyl]benzamide], in assay [1], the Emax was 64.5% and the EC50 was determined as 29.3 nM. For the same molecule, in assay [2], the 50% inhibitory concentration (IC50) was 17.8 nM.

`C#Cc1ccc(Cl)c(C(=O)NC(=O)Nc2nc3ccc(S(=O)(=O)CCCN4CCN(C)CC4)cc3s2)c1` [Example 220, 2-Chloro-5-ethynyl-N-[[6-[3-(4-methylpiperazin-1-yl)propylsulfonyl]benzothiazol-2-yl]carbamoyl]benzamide]: in assay [1], the Emax was found to be 21.4% and the concentration for a half-maximal effect (EC50) turned out to be 4.01 nM. Moreover, the IC50 in assay [2] worked out at 2.8 nM.

With `O=C(NC(=O)c1ccccc1Cl)Nc1nc2ccc(S(=O)(=O)CCC3CCNCC3)cc2s1` [Example 221, 2-Chloro-N-[[6-[2-(4-piperidyl)ethylsulfonyl]benzothiazol-2-yl]carbamoyl]benzamide], in assay [1], the Emax is 65% and the EC50 was found to be 18.7 nM. In assay [2], this molecule returned a concentration for half-maximal inhibition (IC50) of 15.4 nM.

`COCCNC1CC(S(=O)(=O)c2ccc3nc(NC(=O)NC(=O)c4ccccc4Cl)sc3c2)C1` (stereo not drawn) [Example 222, 2-Chloro-N-[[6-[3-(2-methoxyethylamino)cyclobutyl]sulfonylbenzothiazol-2-yl]carbamoyl]benzamide]: in assay [1], the Emax is 58.2% and the EC50 was determined as 43 nM. Also, the half-inhibitory concentration (IC50) in assay [2] turned out to be 18.6 nM.

On to `CC(=O)NC1CC(S(=O)(=O)c2ccc3nc(NC(=O)NC(=O)c4ccccc4Cl)sc3c2)C1` (stereo not drawn) [Example 223, N-[[6-(3-Acetamidocyclobutyl)sulfonylbenzothiazol-2-yl]carbamoyl]-2-chlorobenzamide], for which, in assay [1], the Emax worked out at 24.8% and the EC50 came to 62.1 nM. In assay [2], this molecule showed a concentration for half-maximal inhibition (IC50) of 95.8 nM.
